# In ChEMBL document CHEMBL1201862, “PubChem BioAssay data set” (2004):
#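 How tested: cells in 96-well plates exposed to compound for 48 hours at five concentrations. GI50 marks 50% less growth.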 Calls of active or inactive are those of the source. Rule as the data show it: active = GI50 up to about 1.1 µM and inactive = higher.
# How the values were obtained:
# Assay in all cases: NCI anticancer screen, dose series, 48 h
# RXF 393 = system: RXF 393
# COLO 205 = system: COLO 205
# MDA-MB-435 = system: MDA-MB-435
# T47D = system: T47D
# HCC 2998 = system: HCC 2998
# SK-OV-3 = system: SK-OV-3
# CAKI-1 = system: CAKI-1
# SNB-19 = system: SNB-19
# PC-3 = system: PC-3
# RPMI-8226 = system: RPMI-8226
# SF-268 = system: SF-268
# NCI-H226 = system: NCI-H226
# IGROV-1 = system: IGROV-1
# HCT-116 = system: HCT-116
# NCI-H23 = system: NCI-H23
# MDA-MB-231 = system: MDA-MB-231
# EKVX = system: EKVX
# Malme-3M = system: Malme-3M
# SR = system: SR
# CCRF-CEM = system: CCRF-CEM
Compound,GI50 (RXF 393),GI50 (COLO 205),GI50 (MDA-MB-435),GI50 (T47D),GI50 (HCC 2998),GI50 (SK-OV-3),GI50 (CAKI-1),GI50 (SNB-19),GI50 (PC-3),GI50 (RPMI-8226),GI50 (SF-268),GI50 (NCI-H226),GI50 (IGROV-1),GI50 (HCT-116),GI50 (NCI-H23),GI50 (MDA-MB-231),GI50 (EKVX),GI50 (Malme-3M),GI50 (SR),GI50 (CCRF-CEM)
CCOc1ccc(NC(=S)N/C=C(/C(C)=O)C(=O)Nc2ccccc2C)cc1,> 100 µM (inactive),> 100 µM (inactive),> 100 µM (inactive),> 100 µM (inactive),> 100 µM (inactive),> 100 µM (inactive),> 100 µM (inactive),> 100 µM (inactive),> 100 µM (inactive),7.35 µM (inactive),> 100 µM (inactive),> 100 µM (inactive),> 100 µM (inactive),> 100 µM (inactive),> 100 µM (inactive),> 100 µM (inactive),> 100 µM (inactive),–,–,–
NCCCN(CCCN(C(=O)Nc1ccccc1)c1ccccc1)C(=O)Nc1ccccc1,24.5 µM (inactive),36.8 µM (inactive),–,28.2 µM (inactive),25.6 µM (inactive),45.6 µM (inactive),–,52.4 µM (inactive),33.7 µM (inactive),27.7 µM (inactive),32.6 µM (inactive),44 µM (inactive),51.1 µM (inactive),18.6 µM (inactive),27.2 µM (inactive),59.6 µM (inactive),58.7 µM (inactive),20 µM (inactive),45 µM (inactive),59.2 µM (inactive)
Oc1ccc(Cl)cc1C1=NC(/N=C\c2ccccc2)=NC(c2ccccc2)C1 (stereo not given),66.1 µM (inactive),> 100 µM (inactive),> 100 µM (inactive),13.3 µM (inactive),–,16.3 µM (inactive),4.3 µM (inactive),–,> 100 µM (inactive),–,7.19 µM (inactive),37.8 µM (inactive),7.01 µM (inactive),5.94 µM (inactive),3.87 µM (inactive),35.6 µM (inactive),> 100 µM (inactive),–,5.5 µM (inactive),> 100 µM (inactive)
CC[C@@H]1CC[C@@H]2[C@H](CC[C@]3(C)[C@@H](O)CC[C@@H]23)[C@H]1CO,> 100 µM (inactive),79.8 µM (inactive),66.1 µM (inactive),70.5 µM (inactive),> 100 µM (inactive),> 100 µM (inactive),> 100 µM (inactive),> 100 µM (inactive),76.4 µM (inactive),67 µM (inactive),> 100 µM (inactive),> 100 µM (inactive),> 100 µM (inactive),95.7 µM (inactive),> 100 µM (inactive),> 100 µM (inactive),> 100 µM (inactive),> 100 µM (inactive),–,> 100 µM (inactive)
C#CC1(O)CCCCCCCCC2(CCCCCCCC1)OCCO2,10.9 µM (inactive),17.4 µM (inactive),19.4 µM (inactive),15.5 µM (inactive),15.5 µM (inactive),18.7 µM (inactive),12 µM (inactive),18.9 µM (inactive),12.8 µM (inactive),0.414 µM (active),17.3 µM (inactive),17 µM (inactive),16.7 µM (inactive),16.5 µM (inactive),16.8 µM (inactive),–,18.4 µM (inactive),19.5 µM (inactive),12.3 µM (inactive),–
O=C(NC(=S)Nc1ccc(Br)cc1)c1ccc2c(c1)Sc1ccccc1O2,–,> 100 µM (inactive),> 100 µM (inactive),63.7 µM (inactive),–,40.2 µM (inactive),–,39.3 µM (inactive),> 100 µM (inactive),–,48.3 µM (inactive),> 100 µM (inactive),49.3 µM (inactive),> 100 µM (inactive),> 100 µM (inactive),58.6 µM (inactive),–,> 100 µM (inactive),36.6 µM (inactive),> 100 µM (inactive)
Nc1nc(Cl)cc(NCC2(CO)CCC(Cc3ccccc3)C2)n1 (stereo not given),28.5 µM (inactive),12.8 µM (inactive),7.73 µM (inactive),6.5 µM (inactive),25.8 µM (inactive),36 µM (inactive),19.3 µM (inactive),33.5 µM (inactive),26.7 µM (inactive),12 µM (inactive),30.1 µM (inactive),22.3 µM (inactive),26.5 µM (inactive),15.5 µM (inactive),2.87 µM (inactive),33 µM (inactive),8.71 µM (inactive),10.2 µM (inactive),–,6.68 µM (inactive)
Cc1cc2c(cc1-c1cc3c(cc1C)C(C(C)C)=C(O)C(=O)/C3=C\Nc1nc(-c3ccccc3)cs1)/C(=C/Nc1nc(-c3ccccc3)cs1)C(=O)C(O)=C2C(C)C,15.3 µM (inactive),31.6 µM (inactive),16.9 µM (inactive),31.9 µM (inactive),–,21.1 µM (inactive),35.7 µM (inactive),17.1 µM (inactive),15.7 µM (inactive),33.9 µM (inactive),24.6 µM (inactive),22.2 µM (inactive),16.8 µM (inactive),8.61 µM (inactive),15.5 µM (inactive),10.8 µM (inactive),18.2 µM (inactive),33.8 µM (inactive),32.5 µM (inactive),12.6 µM (inactive)
O=C(O)CCc1nc(-c2ccccc2)c(-c2ccccc2)o1 [OXAPROZIN],> 100 µM (inactive),> 100 µM (inactive),> 100 µM (inactive),74.5 µM (inactive),–,> 100 µM (inactive),> 100 µM (inactive),> 100 µM (inactive),> 100 µM (inactive),74.8 µM (inactive),–,> 100 µM (inactive),> 100 µM (inactive),> 100 µM (inactive),> 100 µM (inactive),> 100 µM (inactive),> 100 µM (inactive),> 100 µM (inactive),> 100 µM (inactive),> 100 µM (inactive)
CCc1nnc2sc(-c3ccc(-c4ccc(Cl)cc4Cl)o3)nn12,3.79 µM (inactive),23.1 µM (inactive),> 100 µM (inactive),18 µM (inactive),–,43.1 µM (inactive),96.6 µM (inactive),> 100 µM (inactive),30.1 µM (inactive),29.2 µM (inactive),61.2 µM (inactive),50.6 µM (inactive),> 100 µM (inactive),62.5 µM (inactive),76.4 µM (inactive),35 µM (inactive),54.8 µM (inactive),> 100 µM (inactive),40.3 µM (inactive),37.3 µM (inactive)
COc1cc(OC)c(C2c3cc4c(cc3OC(N3CCCC3)C2C)OCO4)c(OC)c1 (stereo not given),–,> 10 µM (inactive),–,10.5 µM (inactive),10.1 µM (inactive),–,–,15 µM (inactive),15.7 µM (inactive),16.4 µM (inactive),8.49 µM (inactive),–,13.5 µM (inactive),3.98 µM (inactive),14.8 µM (inactive),–,22.3 µM (inactive),–,11.1 µM (inactive),15.2 µM (inactive)
N/C(S)=N/N=C/c1cc(CN2CCOCC2)c(N)cn1,> 100 µM (inactive),26.8 µM (inactive),70.3 µM (inactive),85.9 µM (inactive),–,53 µM (inactive),45.7 µM (inactive),47.1 µM (inactive),56.9 µM (inactive),79.8 µM (inactive),23.6 µM (inactive),12.7 µM (inactive),50.5 µM (inactive),61.8 µM (inactive),39.4 µM (inactive),48.1 µM (inactive),63.1 µM (inactive),31.3 µM (inactive),44.4 µM (inactive),40.1 µM (inactive)
CCNC(=O)c1cc(Cl)ccc1NC(=O)C12CC3CC(CC(C3)C1)C2,19.2 µM (inactive),31 µM (inactive),29 µM (inactive),34.5 µM (inactive),–,–,30.3 µM (inactive),43.6 µM (inactive),32.1 µM (inactive),24.5 µM (inactive),> 100 µM (inactive),> 100 µM (inactive),33.1 µM (inactive),31.3 µM (inactive),56.8 µM (inactive),71.8 µM (inactive),21.4 µM (inactive),> 100 µM (inactive),–,23.2 µM (inactive)
COc1ccc(S(=O)(=O)c2nnc(S(=O)(=O)Cc3ccccc3)s2)cc1,16.2 µM (inactive),13 µM (inactive),22.5 µM (inactive),29.6 µM (inactive),–,22.5 µM (inactive),17.5 µM (inactive),20.8 µM (inactive),21.1 µM (inactive),6.59 µM (inactive),33.7 µM (inactive),–,–,20.4 µM (inactive),27.3 µM (inactive),17.5 µM (inactive),22.4 µM (inactive),–,–,–
CCCCCC(C(O)C#N)C(O)(C(F)(F)F)C(F)(F)F (stereo not given),–,> 10 µM (inactive),> 10 µM (inactive),> 10 µM (inactive),> 10 µM (inactive),> 10 µM (inactive),> 10 µM (inactive),> 10 µM (inactive),> 10 µM (inactive),> 10 µM (inactive),> 10 µM (inactive),–,> 10 µM (inactive),> 10 µM (inactive),> 10 µM (inactive),> 10 µM (inactive),–,> 10 µM (inactive),> 10 µM (inactive),> 10 µM (inactive)
c1ccc2c(c1)c1c(n2CCOCCN2CCOCC2)CCCC1,–,> 10 µM (inactive),–,32.2 µM (inactive),> 10 µM (inactive),55.2 µM (inactive),15.2 µM (inactive),> 100 µM (inactive),24.7 µM (inactive),21 µM (inactive),20.7 µM (inactive),–,36 µM (inactive),29.8 µM (inactive),32.3 µM (inactive),17.3 µM (inactive),30.9 µM (inactive),13.8 µM (inactive),30.3 µM (inactive),21.8 µM (inactive)
